Measured values as given in patent publication US20250375467A1, “SUSTAINED RELEASE SILICA HYDROGEL COMPOSITES FOR TREATING OPHTHALMOLOGICAL CONDITIONS AND METHODS OF USING SAME” (ASTELLAS US LLC, priority 2022, published 2025).

Set-up: species or system Dutch belted (DB) rabbit
Conditions: rabbit, in vivo
Description: The composite formulation (using formulation #11 CSTR-3) prepared as described in Examples 2 and 3, whose in vitro release profile is shown in FIG. 8A and FIG. 8B, was evaluated for ACP release and tissue exposure following IVT administration in the Dutch belted (DB) rabbit. The study design includes bilateral intravitreal dosing of 1.0 mg oligo equivalent in a 50 μL dosing volume of silica composite PK formulation. Two rabbits (4 eyes) were collected at each of the following time points, day 1, 3, 7, 14, 28, 42, 56, and 84. Eyes were dissected, and vitreous humor, retina, and retinal pigment epithelium (RPE)/choroid were collected for tissue specific bioanalytical analysis employing a qualified dual-hybridization assay. The ocular PK (pharmacokinetics) is summarized in FIG. 9 for liquid formulation administered as an IVT bolus dose for vitreous humor and retina tissues as comparator to the sustained release depot PK formulation. The ocular tissue PK for the PK formulation is provided as solid lines for vitreous humor (top line), retina (middle line) and RPE/choroid (bottom line).
At study termination (day 84), the remaining PK formulation depot was recovered from the vitreous humor by centrifugation and analyzed for remaining silica by microwave plasma atomic emission spectroscopy (MP-AES) method and avacincaptad pegol content by a qualified HPLC assay method. […]

terminal half-life: 3.8 days
Substance: avacincaptad pegol [ACP]
